In PubChem BioAssay (NCI) one finds TGI data, which are given here for 17 molecules.

The structures appear in SMILES notation.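 Test compounds were applied to cells in 96-well plates for 48 hours at 5 doses. TGI: concentration producing complete growth inhibition.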

Test systems include MDA-MB-435; 786-0 renal; HL-60(TB) leukemia; MDA-N; IGROV1 ovarian; SR leukemia; OVCAR-5 ovarian.
Experiment in all cases: NCI anticancer screen, dose series, 48 h

Regarding `OC(C/C=N/Nc1ccccc1)(C(F)(F)Cl)C(F)(F)Cl`, the TGI in the assay on MDA-MB-435, with 786-0 renal, in the assay with HL-60(TB) leukemia, with MDA-N and with IGROV1 ovarian was greater than 10 µM each time.

Take `CC1(C)O[C@@H](CBr)C[C@H](C[C@H]2C[C@@H](O)C[C@@H](CCOCc3ccccc3)O2)O1`: the TGI with MDA-MB-435 is 55.6 µM; in the assay with 786-0 renal, 39.8 µM; with IGROV1 ovarian, 42.6 µM; in the assay with SR leukemia, greater than 100 µM; with OVCAR-5 ovarian, 38.4 µM.

For `CCN(CC)CCO/N=C1/C=C2CCC3C(CC[C@@]4(C)C3CC[C@]4(C)O)[C@@]2(C)CC1` (stereo partly drawn), the TGI with MDA-MB-435 turned out to be 4.77 µM; in the assay on 786-0 renal it was 12.7 µM; with MDA-N, 5.72 µM; with IGROV1 ovarian it was 21 µM; with OVCAR-5 ovarian, 80 µM.

In the case of `Cc1cc2c(cc1Cl)SC(NNc1ccc([N+](=O)[O-])cc1)=NS2(=O)=O`, the TGI in the assay on MDA-MB-435, in the assay on 786-0 renal, in the assay with HL-60(TB) leukemia, with MDA-N, in the assay with IGROV1 ovarian and in the assay on OVCAR-5 ovarian was greater than 10 µM throughout.

Regarding `N#Cc1c(N2CCOCC2)[nH]c(=O)c(C(c2c(Cl)cccc2Cl)c2c(O)c(C#N)c(N3CCOCC3)[nH]c2=O)c1O`, the TGI with MDA-MB-435 was 30.2 µM; with 786-0 renal, greater than 100 µM; with HL-60(TB) leukemia, 29.3 µM; in the assay with IGROV1 ovarian, 35.3 µM; in the assay on SR leukemia it was 26.3 µM; in the assay on OVCAR-5 ovarian, 31.9 µM.

`Cn1c2ccccc2c(=O)c2[nH]c3ccccc3c21`: the TGI in the assay on MDA-MB-435, in the assay on 786-0 renal, in the assay on MDA-N, in the assay on IGROV1 ovarian and in the assay on OVCAR-5 ovarian was greater than 100 µM throughout.

With `N#Cc1nc(COCCOCc2ccc(F)cc2)oc1N`, the TGI in the assay with MDA-MB-435, in the assay with 786-0 renal, with HL-60(TB) leukemia, in the assay on IGROV1 ovarian, in the assay on SR leukemia and in the assay with OVCAR-5 ovarian was greater than 100 µM in each case.

Regarding `COc1ccc(N=[N+]([O-])c2ccc(OC)cc2)cc1`, the TGI in the assay with MDA-MB-435, with 786-0 renal, with MDA-N, in the assay on IGROV1 ovarian and in the assay with OVCAR-5 ovarian was greater than 100 µM in each case.

As for `CCCCNC(=S)/N=C/c1c(O)c2ccccc2[nH]c1=O`, the TGI with MDA-MB-435, in the assay on 786-0 renal, with HL-60(TB) leukemia, in the assay with IGROV1 ovarian, with SR leukemia and in the assay with OVCAR-5 ovarian was greater than 10 µM in each case.

Consider `O=C1NC2(CCN(CCCC3(c4ccc(F)cc4)OCCO3)CC2)Oc2ccccc21`, for which the TGI in the assay with MDA-MB-435, in the assay on 786-0 renal, in the assay on HL-60(TB) leukemia, with IGROV1 ovarian, in the assay with SR leukemia and with OVCAR-5 ovarian was greater than 100 µM each time.

As to `CC(=O)c1cc(C)n2c1CS[C@@H]2c1ccccc1`, the TGI with MDA-MB-435 is greater than 100 µM; in the assay with 786-0 renal, 50.5 µM; in the assay with HL-60(TB) leukemia it was greater than 100 µM; with IGROV1 ovarian, greater than 100 µM; in the assay on SR leukemia, greater than 100 µM; with OVCAR-5 ovarian, greater than 100 µM.

Consider `CN(C)Cc1cc(C(C)(C)C)cc(C2CCCCC2)c1O`, for which the TGI was determined as 36.6 µM with MDA-MB-435; 41.5 µM in the assay on 786-0 renal; 33.9 µM with HL-60(TB) leukemia; 34.8 µM in the assay on IGROV1 ovarian; 25.6 µM in the assay on SR leukemia; 34.9 µM in the assay on OVCAR-5 ovarian.

Regarding `C=CCN1CN(c2ccccc2)C2(CCN(CCCC3(c4ccc(F)cc4)OCCO3)CC2)C1=O`, the TGI came to 33.6 µM with 786-0 renal; 29 µM with HL-60(TB) leukemia; 39.4 µM in the assay on IGROV1 ovarian; 48.7 µM in the assay on SR leukemia; 23.8 µM in the assay with OVCAR-5 ovarian.

Turning to `COc1ccc(CCNC(=O)[C@H]2CCCC[C@@H]2CCO)cc1OC`, the TGI with MDA-MB-435, in the assay with 786-0 renal, in the assay with HL-60(TB) leukemia, in the assay on IGROV1 ovarian, in the assay on SR leukemia and with OVCAR-5 ovarian was greater than 100 µM in each case.

As to `CC(C)(C)OC(=O)N(CCCCNCc1ccc2ccccc2c1)CCCNCc1ccc2ccccc2c1`, the TGI was found to be 3.47 µM in the assay on MDA-MB-435; 2.8 µM with 786-0 renal; 0.507 µM in the assay on HL-60(TB) leukemia; 3.21 µM with IGROV1 ovarian; 3.22 µM in the assay with OVCAR-5 ovarian.

Regarding `N#CCCN(CCN(CCC#N)C(=O)Nc1ccccc1)C(=O)Nc1ccccc1`, the TGI in the assay on 786-0 renal, with HL-60(TB) leukemia, in the assay on MDA-N, with IGROV1 ovarian, in the assay with SR leukemia and in the assay with OVCAR-5 ovarian was greater than 100 µM throughout.

Turning to `O=C1c2ccccc2-c2c1c(-c1cccc(Br)c1)nc1ccc3ccccc3c21`, the TGI in the assay on MDA-MB-435, in the assay with 786-0 renal, with MDA-N and with OVCAR-5 ovarian was greater than 100 µM in each case.
